# PubChem BioAssay (NCI)
#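 A five-concentration, 48-hour dose response in 96-well plates underlies each endpoint, interpolated linearly between surrounding concentrations. The concentration for full growth arrest is given as TGI.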
# Key:
# Experiment in all cases: inhibition of tumour cell growth, NCI panel, 48 h
# [1] = system: NCI-H460 lung
# [2] = system: NCI-H226 lung
# [3] = system: SK-MEL-28 melanoma
# [4] = system: SF-268 CNS
# [5] = system: UO-31 renal
# [6] = system: SK-MEL-2 melanoma
# [7] = system: ACHN renal
# [8] = system: 786-0 renal
# [9] = system: SR leukemia
# [10] = system: SW-620 colon
# [11] = system: A549 NSCLC
# [12] = system: SNB-19 CNS
# [13] = system: NCI-H522 lung
# [14] = system: SN12C renal
# [15] = system: RPMI-8226 leukemia
# [16] = system: SK-MEL-5 melanoma
# [17] = system: DU-145 prostate
# [18] = system: EKVX NSCLC
# [19] = system: SNB-75 CNS
# [20] = system: MDA-MB-231 breast
# [21] = system: HS 578T breast
# [22] = system: MDA-MB-435
# [23] = system: OVCAR-5 ovarian
# [24] = system: OVCAR-3 ovarian
# [25] = system: UACC-62 melanoma
# [26] = system: CAKI-1 renal
# [27] = system: HOP-62 NSCLC
# [28] = system: U251 CNS
# [29] = system: HOP-92 NSCLC
# [30] = system: HCT-15 colon
# [31] = system: SF-295 CNS
# [32] = system: SK-OV-3 ovarian
# [33] = system: OVCAR-8 ovarian
# [34] = system: MDA-N
# [35] = system: IGROV1 ovarian
# [36] = system: MALME-3M melanoma
# [37] = system: NCI/ADR-RES ovarian
# [38] = system: A498 renal
# [39] = system: M14 melanoma
# [40] = system: MOLT-4 leukemia
# [41] = system: NCI-H23 lung
# [42] = system: COLO 205 colon
# [43] = system: HT29 colon
# [44] = system: TK-10 renal
# [45] = system: RXF 393 renal
# [46] = system: SF-539 CNS
# [47] = system: K-562 leukemia
# [48] = system: HCT-116 colon
# [49] = system: T-47D breast
# [50] = system: OVCAR-4 ovarian
# [51] = system: LOX IMVI melanoma
# [52] = system: KM12 colon
# [53] = system: UACC-257 melanoma
# [54] = system: MCF7 breast
# [55] = system: CCRF-CEM leukemia
# [56] = system: PC-3 prostate
compound,measurement,setting,value
CNC(=O)C1CCC(=O)N1CN(C(C)=O)c1ccccc1 (stereo unspecified),TGI,[1],> 100 µM
same,TGI,[2],> 100 µM
same,TGI,[3],> 100 µM
same,TGI,[4],> 100 µM
same,TGI,[5],> 100 µM
same,TGI,[6],> 100 µM
same,TGI,[7],> 100 µM
same,TGI,[8],> 100 µM
same,TGI,[9],84 µM
same,TGI,[10],> 100 µM
same,TGI,[11],> 100 µM
same,TGI,[12],> 100 µM
same,TGI,[13],> 100 µM
same,TGI,[14],> 100 µM
same,TGI,[15],> 100 µM
same,TGI,[16],> 100 µM
same,TGI,[17],> 100 µM
same,TGI,[18],> 100 µM
same,TGI,[19],> 100 µM
same,TGI,[20],> 100 µM
same,TGI,[21],> 100 µM
same,TGI,[22],> 100 µM
same,TGI,[23],> 100 µM
same,TGI,[24],> 100 µM
same,TGI,[25],> 100 µM
same,TGI,[26],> 100 µM
same,TGI,[27],> 100 µM
same,TGI,[28],> 100 µM
same,TGI,[29],> 100 µM
same,TGI,[30],> 100 µM
same,TGI,[31],> 100 µM
same,TGI,[32],> 100 µM
same,TGI,[33],> 100 µM
same,TGI,[34],> 100 µM
same,TGI,[35],> 100 µM
same,TGI,[36],> 100 µM
same,TGI,[37],> 100 µM
same,TGI,[38],> 100 µM
same,TGI,[39],> 100 µM
same,TGI,[40],> 100 µM
same,TGI,[41],> 100 µM
same,TGI,[42],> 100 µM
same,TGI,[43],> 100 µM
same,TGI,[44],> 100 µM
same,TGI,[45],> 100 µM
same,TGI,[46],> 100 µM
same,TGI,[47],> 100 µM
same,TGI,[48],> 100 µM
same,TGI,[49],> 100 µM
same,TGI,[50],> 100 µM
same,TGI,[51],> 100 µM
same,TGI,[52],> 100 µM
same,TGI,[53],> 100 µM
same,TGI,[54],> 100 µM
same,TGI,[55],426 nM
same,TGI,[56],> 100 µM
